US7524866B2, “Prevention and treatment of androgen—deprivation induced osteoporosis” (GTx, Inc., priority 2001, dated 2009)

Columns and labels:
[1] = tested on: orchidectomized (Orx/Cx) male Sprague-Dawley rats; test: Compression test of the distal right femur (Example 3); assay type: in vivo, rat; conditions: Toremifene 5 mg/kg/day; for mechanical strength parameters of the distal femur (maximum load, stiffness, ultimate strength, elastic modulus): Orx rats, 17-β-Estradiol 0.5 mg/kg/day s.c.; for Elastic Modulus / Energy / Maximum Load / Stiffness / Toughness / Ultimate Strength / CSA (cross sectional area): castrated (Cx) rats, n=5, 17-β-estradiol 0.5 mg/kg/day s.c.; for Elastic Modulus / Energy / Maximum Load / Stiffness / Toughness / Ultimate Strength: distal right femur compression; for CSA (cross sectional area): distal right femur specimen
Experimental: Using a Material Testing System (Model 5501R Instron Corp., Canton, Mass.), two types of mechanical testing were performed on the right femur. The load and extension curves were collected by the machine software (Merlin II, Instron Corp.). All tests were conducted using a 5 kN load cell at a constant loading rate of 6 mm/min. The general applications of the tests were as described in Turner and Burr (Bone, 1993; 14: 595-608) and Ke et al (Bone, 1998; 23, 249-255).
Compression Test of the Distal Femur
A compression test was used to determine the mechanical properties of the distal femur. The distal femur test specimen was obtained by removing a 3 mm segment directly proximal to the distal condyle using a slow speed diamond saw with constant saline irrigation. An electronic caliper was used to measure the average anterior/posterior diameter (a), medial/lateral diameter (b), and height (h) of the bone. The extrinsic parameters, maximal load (Fu), stiffness (S) and energy (W), were obtained from the load and extension curve. The following intrinsic parameters were calculated from the measured values: Cross sectional area (CSA)=(π*a*b)/4; Ultimate Strength (σ)=Fu/CSA; Elastic modulus (E)=S/(CSA/h); Toughness (T)=W/(CSA*h).

[2] = tested on: C-telopeptide of rat collagen I in serum; test: Serum RatLaps ELISA, C-telopeptide of type I collagen, orchidectomy model (Example 3); assay type: in vivo; conditions: orchidectomized rats, 15 and 30 days; Toremifene 5 mg/kg/day, 17-β-estradiol 0.5 mg/kg/day s.c.; FIG. 1
Experimental: Male Sprague-Dawley rats (Harlan Sprague Dawley) were placed on study at 14-weeks of age. They were randomized and divided into five treatment groups: vehicle only (placebo, or P) after sham operation, vehicle only after orchidectomy (Orx), Toremifene (5 mg/kg/day) after sham-operation, and Toremifene after orchidectomy, and 17-β-estradiol (0.5 mg/kg/day) after orchidectomy. Test articles were delivered subcutaneously by Alzet pumps. Pumps were re-implanted every 30 days until the end of the study. Five to six animals from each group were sacrificed after 60 and 120 days of treatment, and femurs were harvested, stripped of soft tissue and muscle, and stored individually in polypropylene vials at −80° C. until analysis of bone density and mechanical strength testing. Additionally, serum was collected on days 15, 30, 60, 90 and 120, to measure markers of bone metabolism and to perform serum chemistry. […]
The assay was performed in duplicates, each 20 ul of serum as well as standards and control. […] After washing the strips 100 ul of the Chromogenic Substrate Solution was added to each well, and after 15 min the reaction was stopped and the absorbance was measured at 450 nm. The means of the duplicate absorbance determination were calculated, and a standard curve was constructed using 4-parametric logistic curve fit. Sample RatLaps concentrations were determined by interpolation.

[3] = tested on: orchidectomized (Orx/Cx) male Sprague-Dawley rats; test: Distal right femur cancellous pQCT (Example 3); assay type: in vivo, rat; conditions: Toremifene 5 mg/kg/day; for cancellous bone mineral content and density (Orx-induced decrease of 34%): Orx rats, 17-β-Estradiol 0.5 mg/kg/day s.c.; for Total Bone Area / Total Bone Content / Total Bone Density / Trabecular Area / Trabecular Content / Trabecular Density: castrated (Cx) rats, distal right femur pQCT, mean, n=5, 17-β-estradiol 0.5 mg/kg/day s.c.
Experimental: Male Sprague-Dawley rats (Harlan Sprague Dawley) were placed on study at 14-weeks of age. They were randomized and divided into five treatment groups: vehicle only (placebo, or P) after sham operation, vehicle only after orchidectomy (Orx), Toremifene (5 mg/kg/day) after sham-operation, and Toremifene after orchidectomy, and 17-β-estradiol (0.5 mg/kg/day) after orchidectomy. Test articles were delivered subcutaneously by Alzet pumps. Pumps were re-implanted every 30 days until the end of the study. Five to six animals from each group were sacrificed after 60 and 120 days of treatment, and femurs were harvested, stripped of soft tissue and muscle, and stored individually in polypropylene vials at −80° C. until analysis of bone density and mechanical strength testing. Additionally, serum was collected on days 15, 30, 60, 90 and 120, to measure markers of bone metabolism and to perform serum chemistry.
Peripheral Quantitative Computed Tomography (pQCT)
Right femurs were subjected to pQCT analysis using a Stratec XCT-RM with associated software (Stratec Medizintechnik GmbH, Pforzheim, Germany. Software version 5.40 C). Femurs were scanned at two sites, 20% and 50% of the total femoral length measured from the distal femur. The position was verified using scout views, and scan results from two 0.5 mm slices perpendicular to the long axis of the femur shaft were recorded.

[4] = tested on: orchidectomized rats (ORX); test: Three point bending test of the femoral shaft (Example 4); assay type: in vivo, rat; conditions: 12 weeks, mean
Experimental: (§1) Eight month-old male Sprague Dawley rats were either sham-operated (SHAM) or orchidectomized (ORX). Treatment began immediately following surgery. The treatment groups were as described in Table 5. Bone strength was evaluated using a compression test at the vertebral body, a three point bending test at the femoral shaft, a compression test at the distal femur and a cantilever compression test of the femoral neck. Prior to mechanical testing, all samples were thawed in cold saline and carefully cleaned of any remaining adherent soft tissue.

[5] = tested on: orchidectomized rats (ORX); test: Compression test of the vertebral body (L5) (Example 4); assay type: in vivo, rat; conditions: for Elastic Modulus / Energy / Maximum Load / Stiffness / Toughness / Ultimate Strength: 12 weeks, vertebral body compression, mean
Experimental: as §1

[6] = Toremifene 5 mg/kg/d, Estradiol 0.2 mg/kg/d
[7] = week 12, Toremifene 5 and 10 mg/kg/d, Estradiol 0.2 mg/kg/d

## C[C@]12CC[C@@H]3c4ccc(O)cc4CC[C@H]3[C@@H]1CC[C@@H]2O [17-β-Estradiol]
[1]
  mechanical strength parameters of the distal femur (maximum load, stiffness, ultimate strength, elastic modulus): statistically significant improvements in these parameter values
  Elastic Modulus: 753.44 MPa
  Energy: 58.28 mJ
  Maximum Load: 613.61 N
  Stiffness: 4842.67 N/mm
  Toughness: 0.98 MJ/m³
  Ultimate Strength: 31.23 N/mm^2
  CSA (cross sectional area): 19.75 mm^2
[2]
  C-telopeptide levels in serum: reduced the C-telopeptide levels to or below control values
[3]
  cancellous bone mineral content and density (Orx-induced decrease of 34%): fully prevent this cancellous bone loss
  Total Bone Area: 15.95 mm^2
  Total Bone Content: 11.01 mg/mm
  Total Bone Density: 690.74 mg/mL
  Trabecular Area: 7.17 mm^2
  Trabecular Content: 1.52 mg/mm
  Trabecular Density: 210.28 mg/mL
[4]; [6]
  Elastic Modulus: 5149.41 MPa
  Energy: 98.61 mJ
  Maximum Load: 287.22 N
  Stiffness: 986.71 N/mm
  Toughness: 6.85 MJ/m^3
  Ultimate Strength: 172.51 N/mm^2
[5]; 0.2 mg/kg/d
  Elastic Modulus: 589.03 MPa
  Energy: 43.60 mJ
  Maximum Load: 298.04 N
  Stiffness: 1648.17 N/mm
  Toughness: 0.94 MJ/m^3
  Ultimate Strength: 25.75 N/mm^2
[5]; [7]
  ORX-induced decreases in bone strength, compression test of the vertebral body: prevented loss of bone strength due to ORX

## CN(C)CCOc1ccc(/C(=C(/CCCl)c2ccccc2)c2ccccc2)cc1 [Toremifene]
[1]
  mechanical strength parameters of the distal femur (maximum load, stiffness, ultimate strength, elastic modulus): improved various parameters to a level that was better than Sham-operated animals
  Elastic Modulus: 579.07 MPa
  Energy: 56.96 mJ
  Maximum Load: 467.01 N
  Stiffness: 3856.71 N/mm
  Toughness: 0.86 MJ/m³
  Ultimate Strength: 22.13 N/mm^2
  CSA (cross sectional area): 21.30 mm^2
[2]
  C-telopeptide levels in serum: reduced the C-telopeptide levels to or below control values
[3]
  cancellous bone mineral content and density (Orx-induced decrease of 34%): partially prevented this decrease
  Total Bone Area: 15.96 mm^2
  Total Bone Content: 10.69 mg/mm
  Total Bone Density: 669.74 mg/mL
  Trabecular Area: 7.18 mm^2
  Trabecular Content: 1.13 mg/mm
  Trabecular Density: 157.56 mg/mL
[4]; [6]
  Elastic Modulus: 4505.90 MPa
  Energy: 83.40 mJ
  Maximum Load: 263.54 N
  Stiffness: 944.78 N/mm
  Toughness: 5.67 MJ/m^3
  Ultimate Strength: 150.45 N/mm^2
[4]; Toremifene 10 mg/kg/d
  Elastic Modulus: 4557.46 MPa
  Energy: 88.58 mJ
  Maximum Load: 272.56 N
  Stiffness: 910.47 N/mm
  Toughness: 6.16 MJ/m^3
  Ultimate Strength: 161.23 N/mm^2
[5]; 5 mg/kg/d
  Elastic Modulus: 446.38 MPa
  Energy: 36.60 mJ
  Maximum Load: 238.19 N
  Stiffness: 1391.70 N/mm
  Toughness: 0.72 MJ/m^3
  Ultimate Strength: 19.08 N/mm^2
[5]; 10 mg/kg/d
  Elastic Modulus: 438.64 MPa
  Energy: 27.02 mJ
  Maximum Load: 206.48 N
  Stiffness: 1255.47 N/mm
  Toughness: 0.59 MJ/m^3
  Ultimate Strength: 18.12 N/mm^2
[5]; [7]
  ORX-induced decreases in bone strength, compression test of the vertebral body: did not prevent these changes
[5]; week 12, Toremifene at the 10 mg/kg/d dose
  ORX-induced decreases in bone strength, compression test of the vertebral body: may have worsened the changes
